Data as given in patent publication US20230218624A1 (Urovant Sciences GmbH, priority 2017, published 2023).

What was measured:
[1] = target: β2-AR (Homo sapiens, UniProt P07550); assay: Competition binding assay, membranes with recombinant β2-AR
[2] = Plasma protein binding; assay type: in vitro ADME; conditions: human, plasma
[3] = test system: human plasma proteins; assay: Plasma protein binding; assay type: in vitro ADME
[4] = Single rising oral dose Phase 1 pharmacokinetics; assay type: in vivo, human
Protocol: The steady state AUC geometric mean accumulation ratios were ˜2 in young male subjects and ˜2.8 in elderly subjects (male and female).
All subjects were healthy adults. […] Systemic exposures were greater than dose proportional up to 600 mg.

[5] = Relative bioequivalence of aqueous and non-aqueous tablet; assay type: in vivo, human; conditions: 50 mg
From the text: An open-label, single-dose, randomized, two-period, two-treatment, two-sequence, crossover Phase 1 study evaluated the relative bioequivalence of two types of tablets with slightly different composition: aqueous tablet (test) and non-aqueous tablet (reference).

[6] = Drug interaction: effect of co-administered medication on vibegron PK; assay type: in vivo, human
From the text: However, these interactions are not expected to be clinically significant.

[7] = test system: men and women with OAB; assay: Phase 2b efficacy study in men and women with OAB; assay type: in vivo, human; conditions: for Micturitions, change from baseline in average number of micturitions, difference in LS means / Total incontinence, change from baseline in average number of episodes, difference in LS means / Urgency Episodes, change from baseline in average number of episodes, difference in LS means / Urgency incontinence, change from baseline in average number of episodes, difference in LS means / Volume voided, change from baseline in average volume per void over one diary day, difference in LS means: week 8; for Change from baseline in volume voided per micturition, difference from placebo in LS means: Week 8; for Total incontinence episodes, change from baseline Week 8, mean / Total incontinence episodes, daily number, Week 8 mean / Total incontinence episodes, difference from placebo Week 8, difference in LS means / Urgency incontinence episodes, change from baseline Week 8, mean / Urgency incontinence episodes, daily number, Week 8 mean / Urgency incontinence episodes, difference from placebo Week 8, difference in LS means: OAB wet subjects
From the text: Part 2 was designed to continue to assess the safety and efficacy of concomitant dosing. […] Subjects in both Part 1 and Part 2 had the option of enrolling in a 1-year extension. Participants were required to keep a voiding diary, recording the occurrence of each strong urge, total incontinence, and urge incontinence episode. Efficacy data for Part 1 and Part 2 are summarized herein.
The total number of urgency incontinence episodes must have exceeded the total number of stress incontinence episodes for all subjects.
Conversely, a dose dependent effect on urge incontinence or total incontinence was not observed.

[8] = test system: males and females with OAB; assay: Phase 3 12-week placebo controlled study in OAB; assay type: in vivo, human; conditions: Week 12
Protocol: (§1) After eight weeks, the dose could be increased to 100 mg once daily as clinically indicated.

[9] = test system: patients with OAB; assay: Phase 3 open-label 52-week study in OAB; assay type: in vivo, human; conditions: 50 mg or 100 mg once daily, 52-week treatment period
Protocol: as §1

[10] = test system: healthy subjects; assay: Phase 1 safety data; assay type: in vivo
Protocol: Exposure, and therefore risk of adverse-events can be further reduced with a 50 mg dose.

[11] = test system: healthy subjects; assay: Maximum MA4 heart rate in multiple-dose Phase 1 study; assay type: in vivo, human; conditions: Day 14
Protocol: More intensive assessments of heart rate and blood pressure were performed in healthy volunteers in several Phase 1 studies. […] Doses ranged from 25 to 400 mg once daily for 7 to 28 days depending on the cohort. Least squares mean and 90% confidence intervals of maximum change from baseline in moving average of heart rate over 4 hours postdose (MA4 HR) are presented in Table 17.

[12] = target: β3-AR (Homo sapiens, UniProt P13945)
Chain of β3-AR (P13945 whole entry): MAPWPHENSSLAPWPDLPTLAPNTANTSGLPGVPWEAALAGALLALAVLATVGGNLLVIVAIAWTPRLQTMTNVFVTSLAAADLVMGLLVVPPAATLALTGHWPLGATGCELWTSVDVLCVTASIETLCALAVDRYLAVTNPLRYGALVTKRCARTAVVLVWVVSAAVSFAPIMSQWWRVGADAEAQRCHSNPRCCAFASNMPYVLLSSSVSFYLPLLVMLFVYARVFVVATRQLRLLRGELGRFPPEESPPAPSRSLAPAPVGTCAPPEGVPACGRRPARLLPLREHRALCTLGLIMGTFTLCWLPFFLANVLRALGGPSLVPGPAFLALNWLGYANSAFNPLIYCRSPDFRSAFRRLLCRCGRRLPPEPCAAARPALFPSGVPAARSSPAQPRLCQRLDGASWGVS

[13] = vibegron 100 mg single dose with multiple doses of 240 mg or 180 mg diltiazem

Chain of β2-AR (P07550 whole entry): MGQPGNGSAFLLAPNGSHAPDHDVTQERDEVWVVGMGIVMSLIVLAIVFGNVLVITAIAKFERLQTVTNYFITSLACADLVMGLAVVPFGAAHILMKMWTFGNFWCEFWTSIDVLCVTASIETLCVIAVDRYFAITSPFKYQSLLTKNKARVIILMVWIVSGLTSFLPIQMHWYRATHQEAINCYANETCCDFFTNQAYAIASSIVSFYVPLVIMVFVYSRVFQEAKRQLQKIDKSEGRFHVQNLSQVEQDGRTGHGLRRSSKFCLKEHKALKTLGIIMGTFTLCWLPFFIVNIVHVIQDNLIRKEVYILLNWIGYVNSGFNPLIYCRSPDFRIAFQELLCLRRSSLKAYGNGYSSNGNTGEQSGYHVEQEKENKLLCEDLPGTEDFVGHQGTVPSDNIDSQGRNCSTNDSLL

## O=C(Nc1ccc(C[C@@H]2CC[C@H]([C@H](O)c3ccccc3)N2)cc1)[C@@H]1CCc2nccc(=O)n21 [Vibegron, (6S)—N-[4-[[(2S,5R)-5-[(R)-hydroxy(phenyl)methyl]pyrrolidin-2-yl]methyl]phenyl]-4-oxo-7,8-dihydro-6H-pyrrolo[1,2-a]pyrimidine-6-carboxamide]
[1]
  binding to β2-AR: does not bind
[2]
  fraction unbound: 0.49
[3]
  bound to human plasma proteins: approximately 49%
[4]; single dose
  exposure increase, young Japanese vs non-Japanese young males: < 2 fold
[4]; single dose 50 mg, Japanese healthy young males
  t1/2 (harmonic mean ± pseudo SD): 64.4 ± 8.7 h
[4]; single dose 50 mg, elderly male and female
  t1/2 (harmonic mean ± pseudo SD): 92.1 ± 15.9 h
[4]; single dose 200 mg, healthy young males
  t1/2 (harmonic mean ± pseudo SD): 75.3 ± 9.1 h
[4]; single dose 450 mg, healthy young males
  t1/2 (harmonic mean ± pseudo SD): 60.0 ± 9.4 h
[5]
  AUC0-inf GMR test to reference tablet: 100.2%
  Cmax GMR test to reference tablet: 107.7%
[6]; in vivo
  effect of tolterodine ER 4 mg on the pharmacokinetics of vibegron: no effect
[6]; vibegron 100 mg single dose + diltiazem ER 240 mg QD
  Cmax of vibegron, geometric mean: 167 ng/mL
[6]; [13]
  GM AUC0-inf increase: 63%
  GM Cmax increase: 68%
[6]; vibegron with diltiazem
  GM t1/2: 75.4 h
[7]; 50 mg - Placebo
  Micturitions, change from baseline in average number of micturitions, difference in LS means: −0.64
  Total incontinence, change from baseline in average number of episodes, difference in LS means: −0.60
  Urgency Episodes, change from baseline in average number of episodes, difference in LS means: −0.76
  Urgency incontinence, change from baseline in average number of episodes, difference in LS means: −0.72
  Volume voided, change from baseline in average volume per void over one diary day, difference in LS means: 29.1 mL
[7]; 100 mg - 50 mg
  Micturitions, change from baseline in average number of micturitions, difference in LS means: −0.27
  Total incontinence, change from baseline in average number of episodes, difference in LS means: 0.02
  Urgency Episodes, change from baseline in average number of episodes, difference in LS means: −0.48
  Urgency incontinence, change from baseline in average number of episodes, difference in LS means: 0.01
  Volume voided, change from baseline in average volume per void over one diary day, difference in LS means: -5.69 mL
[7]; 100 mg - Placebo
  Micturitions, change from baseline in average number of micturitions, difference in LS means: −0.91
  Total incontinence, change from baseline in average number of episodes, difference in LS means: −0.58
  Urgency Episodes, change from baseline in average number of episodes, difference in LS means: −1.24
  Urgency incontinence, change from baseline in average number of episodes, difference in LS means: −0.71
  Volume voided, change from baseline in average volume per void over one diary day, difference in LS means: 23.4 mL
[7]; vibegron 3 mg
  Micturitions, change from baseline Week 8, mean: −1.56
  Micturitions, daily number, Week 8 mean: 9.35
  Micturitions, difference from placebo Week 8, difference in LS means: −0.46
  Urgency episodes, change from baseline Week 8, mean: −1.69
  Urgency episodes, daily number, Week 8 mean: 4.68
  Urgency episodes, difference from placebo Week 8, difference in LS means: −0.18
  Total incontinence episodes, change from baseline Week 8, mean: −1.56
  Total incontinence episodes, daily number, Week 8 mean: 1.38
  Total incontinence episodes, difference from placebo Week 8, difference in LS means: −0.18
  Urgency incontinence episodes, change from baseline Week 8, mean: −1.38
  Urgency incontinence episodes, daily number, Week 8 mean: 1.21
  Urgency incontinence episodes, difference from placebo Week 8, difference in LS means: −0.28
[7]; vibegron 3 mg once daily
  Change from baseline in volume voided per micturition, difference from placebo in LS means: 15.99 mL
[7]; vibegron 15 mg
  Micturitions, change from baseline Week 8, mean: −1.71
  Micturitions, daily number, Week 8 mean: 9.53
  Micturitions, difference from placebo Week 8, difference in LS means: −0.45
  Urgency episodes, change from baseline Week 8, mean: −2.35
  Urgency episodes, daily number, Week 8 mean: 4.42
  Urgency episodes, difference from placebo Week 8, difference in LS means: −0.67
  Total incontinence episodes, change from baseline Week 8, mean: −1.99
  Total incontinence episodes, daily number, Week 8 mean: 1.31
  Total incontinence episodes, difference from placebo Week 8, difference in LS means: −0.48
  Urgency incontinence episodes, change from baseline Week 8, mean: −1.81
  Urgency incontinence episodes, daily number, Week 8 mean: 1.12
  Urgency incontinence episodes, difference from placebo Week 8, difference in LS means: −0.57
[7]; vibegron 15 mg once daily
  Change from baseline in volume voided per micturition, difference from placebo in LS means: 28.23 mL
[7]; vibegron 50 mg
  Micturitions, change from baseline Week 8, mean: −1.87
  Micturitions, daily number, Week 8 mean: 9.05
  Micturitions, difference from placebo Week 8, difference in LS means: −0.64
  Urgency episodes, change from baseline Week 8, mean: −2.36
  Urgency episodes, daily number, Week 8 mean: 3.71
  Urgency episodes, difference from placebo Week 8, difference in LS means: −0.76
  Total incontinence episodes, change from baseline Week 8, mean: −2.02
  Total incontinence episodes, daily number, Week 8 mean: 1.02
  Total incontinence episodes, difference from placebo Week 8, difference in LS means: −0.60
  Urgency incontinence episodes, change from baseline Week 8, mean: −1.90
  Urgency incontinence episodes, daily number, Week 8 mean: 0.86
  Urgency incontinence episodes, difference from placebo Week 8, difference in LS means: −0.72
[7]; vibegron 50 mg once daily
  Change from baseline in volume voided per micturition, difference from placebo in LS means: 29.05 mL
[7]; vibegron 100 mg
  Micturitions, change from baseline Week 8, mean: −2.11
  Micturitions, daily number, Week 8 mean: 9.02
  Micturitions, difference from placebo Week 8, difference in LS means: −0.91
  Urgency episodes, change from baseline Week 8, mean: −2.98
  Urgency episodes, daily number, Week 8 mean: 4.22
  Urgency episodes, difference from placebo Week 8, difference in LS means: −1.24
  Total incontinence episodes, change from baseline Week 8, mean: −2.26
  Total incontinence episodes, daily number, Week 8 mean: 1.12
  Total incontinence episodes, difference from placebo Week 8, difference in LS means: −0.58
  Urgency incontinence episodes, change from baseline Week 8, mean: −2.05
  Urgency incontinence episodes, daily number, Week 8 mean: 0.84
  Urgency incontinence episodes, difference from placebo Week 8, difference in LS means: −0.71
[7]; vibegron 100 mg once daily
  Change from baseline in volume voided per micturition, difference from placebo in LS means: 23.36 mL
[8]; 50 mg
  Micturitions, LS mean placebo adjusted change from baseline (95% CI): −0.86 (−1.12, −0.60)
  Total incontinence episodes, LS mean placebo adjusted change from baseline (95% CI): −0.30 (−0.49, −0.12)
  Urge urinary incontinence episodes, LS mean placebo adjusted change from baseline (95% CI): −0.27 (−0.44, −0.10)
  Urgency episodes, LS mean placebo adjusted change from baseline (95% CI): −0.51 (−0.76, −0.25)
  Volume voided, LS mean placebo adjusted change from baseline (95% CI): 25.76 (20.02, 31.46) mL
[8]; 100 mg
  Micturitions, LS mean placebo adjusted change from baseline (95% CI): −0.81 (−1.07, −0.55)
  Total incontinence episodes, LS mean placebo adjusted change from baseline (95% CI): −0.43 (−0.61, −0.24)
  Urge urinary incontinence episodes, LS mean placebo adjusted change from baseline (95% CI): −0.39 (−0.55, −0.22)
  Urgency episodes, LS mean placebo adjusted change from baseline (95% CI): −0.67 (−0.93, −0.42)
  Volume voided, LS mean placebo adjusted change from baseline (95% CI): 22.16 (16.44, 27.89) mL
[9]
  long-term efficacy: reduced episodes of micturitions, UUI episodes, total incontinence episodes, and urgency episodes
[10]; Phase 1 program, single 2 to 600 mg, multiple 25 to 400 mg
  tolerability: generally well tolerated
[10]; vibegron 100 mg coadministered in essential hypertension on metoprolol or amlodipine
  orthostatic AEs: no occurrences of orthostatic AEs
[11]; 25 mg once daily
  Maximum MA4 HR difference from placebo (90% CI): −1.60 (−7.09, 3.88) bpm
  Maximum MA4 HR, LS mean (90% CI): 1.47 (−3.24, 6.17) bpm
[11]; 50 mg once daily
  Maximum MA4 HR difference from placebo (90% CI): −1.57 (−6.70, 3.56) bpm
  Maximum MA4 HR, LS mean (90% CI): 1.50 (−2.79, 5.79) bpm
[11]; 100 mg once daily
  Maximum MA4 HR, LS mean (90% CI): 3.28 (−1.02, 7.57) bpm
[11]; 150 mg once daily
  Maximum MA4 HR difference from placebo (90% CI): 0.10 (−5.04, 5.23) bpm
  Maximum MA4 HR, LS mean (90% CI): 3.17 (−1.13, 7.46) bpm
[11]; 200 mg once daily
  Maximum MA4 HR difference from placebo (90% CI): 2.60 (−2.89, 8.08) bpm
  Maximum MA4 HR, LS mean (90% CI): 5.67 (0.96, 10.37) bpm
[11]; 300 mg once daily
  Maximum MA4 HR difference from placebo (90% CI): 5.98 (0.85, 11.12) bpm
  Maximum MA4 HR, LS mean (90% CI): 9.06 (4.76, 13.35) bpm
[11]; 400 mg once daily
  Maximum MA4 HR difference from placebo (90% CI): 7.26 (2.13, 12.39) bpm
  Maximum MA4 HR, LS mean (90% CI): 10.33 (6.04, 14.63) bpm
[12]
  β3-AR IC50: 0.086 µg/mL
